± gives the expanded uncertainty stated by the source.
Assays:
[1] = refractive index (Na D-line) (dimensionless); settings: 298.15 K; 101.33 kPa; Liquid; Standard Abbe refractometry
[2] = 298.15 K; 101.33 kPa; Liquid; Vibrating tube method

refractive index [1] | mass density [2] | SMILES
1.4306 ± 0.004 |  | OCCO [1,2-ethanediol]
1.3836 ± 0.004 | 799.62 ± 0.14 kg/m3 | CCCO [propan-1-ol]
1.3325 ± 0.004 |  | O [water]
1.3784 ± 0.0045 | 741.81 ± 13 kg/m3 | CCCOCCC [dipropyl ether]
